18 compounds from patent publication US20240092790A1, “DIHYDROFUROPYRIDINE DERIVATIVES AS RHO- KINASE INHIBITORS” (CHIESI FARMACEUTICI S.P.A., priority 2020, published 2024) can be followed below.

What all share (assay type): biochemical
The target in one experiment is ROCK1 (Homo sapiens, UniProt Q13464). Briefly: In vitro inhibitory activity assay ROCK1 (ADP-Glo). Particulars: ATP 200 μM, Cheng-Prusoff; read-out: ROCK 1 (Ki, range of activity). The method, then:
(§1) In Vitro Inhibitory Activity Assay Description ROCK1 and ROCK2
(§2) The effectiveness of compounds of the present invention to inhibit Rho kinase activity can be determined in a 10 μl assay containing 40 mM Tris pH7.5, 20 mM MgCl2 0.1 mg/mL BSA, 50 μM DTT and 2.5 μM peptide substrate (Myelin Basic Protein) using an ADP-Glo kit (Promega). Compounds were dissolved in DMSO such that the final concentration of DMSO was 1% in the assay. All reactions/incubations are performed at 25° C. Compound (2 ul) and either Rho kinase 1 or 2 (4 μl) were mixed and incubated for 30 mins. Reactions were initiated by addition of ATP (4 μl) such that the final concentration of ATP in the assay was 200 μM. After a 1 hour incubation 10 μl of ADP-Glo Reagent was added and after a further 1 hour incubation 20 ul of Kinase Detection Buffer was added and the mixture incubated for a further 45 minutes. The luminescent signal was measured on a luminometer. […] Compounds were tested in dose-response format and the inhibition of kinase activity was calculated at each concentration of compound. To determine the IC50 (concentration of compound required to inhibit 50% of the enzyme activity) data were fit to a plot of % inhibition vs Log 10 compound concentration using a sigmoidal fit with a variable slope and fixing the maximum to 100% and the minimum to 0%. To determine the Ki values the Cheng-Prusoff equation was utilized (Ki=IC50/(1+[S]/Km).

The target in the next experiment is ROCK2 (Homo sapiens, UniProt O75116). Briefly: In vitro inhibitory activity assay ROCK2 (ADP-Glo). As to conditions: ATP 200 μM, Cheng-Prusoff; read-out: ROCK2 (Ki, range of activity). The method, then: as §1, §2
The target of another experiment is PKA (Homo sapiens, UniProt P17612). Briefly: In vitro inhibitory activity assay for PKA (ADP-Glo), reported as selectivity ratio vs ROCK2. As to conditions: Ki value for PKA divided by Ki value of ROCK2. The procedure:
In Vitro Inhibitory Activity Assay Description for PKA
The effectiveness of compounds of the present invention to inhibit PKA activity can be determined in a 10 μl assay containing 40 mM Tris pH7.5, 20 mM MgCl2 0.1 mg/ml BSA, 50 μM DTT and 260 μM peptide substrate (kemptide) using an ADP-Glo kit (Promega). Compounds were dissolved in DMSO such that the final concentration of DMSO was 1% in the assay. All reactions/incubations are performed at 25° C. Compound and PKA enzyme (6 μl) were mixed and incubated for 30 mins. Reactions were initiated by addition of ATP (4 μl) such that the final concentration of ATP in the assay was 10 μM. After a 30 minute incubation 10p of ADP-Glo Reagent was added and after a further 1 hour incubation 20 μl of Kinase Detection Buffer was added and the mixture incubated for a further 45 minutes. The luminescent signal was measured on a luminometer. […] Compounds were tested in dose-response format and the inhibition of kinase activity was calculated at each concentration of compound. To determine the IC50 (concentration of compound required to inhibit 50% of the enzyme activity) data were fit to a plot of % inhibition vs Log10 compound concentration using a sigmoidal fit with a variable slope and fixing the maximum to 100% and the minimum to 0%. To determine the Ki values the Cheng-Prusoff equation was utilized (Ki=IC50/(1+[S]/Km).
In vitro inhibitory activities for PKA were reported as selectivity ratio vs. ROCK-2.

ROCK2, sequence (O75116 whole entry): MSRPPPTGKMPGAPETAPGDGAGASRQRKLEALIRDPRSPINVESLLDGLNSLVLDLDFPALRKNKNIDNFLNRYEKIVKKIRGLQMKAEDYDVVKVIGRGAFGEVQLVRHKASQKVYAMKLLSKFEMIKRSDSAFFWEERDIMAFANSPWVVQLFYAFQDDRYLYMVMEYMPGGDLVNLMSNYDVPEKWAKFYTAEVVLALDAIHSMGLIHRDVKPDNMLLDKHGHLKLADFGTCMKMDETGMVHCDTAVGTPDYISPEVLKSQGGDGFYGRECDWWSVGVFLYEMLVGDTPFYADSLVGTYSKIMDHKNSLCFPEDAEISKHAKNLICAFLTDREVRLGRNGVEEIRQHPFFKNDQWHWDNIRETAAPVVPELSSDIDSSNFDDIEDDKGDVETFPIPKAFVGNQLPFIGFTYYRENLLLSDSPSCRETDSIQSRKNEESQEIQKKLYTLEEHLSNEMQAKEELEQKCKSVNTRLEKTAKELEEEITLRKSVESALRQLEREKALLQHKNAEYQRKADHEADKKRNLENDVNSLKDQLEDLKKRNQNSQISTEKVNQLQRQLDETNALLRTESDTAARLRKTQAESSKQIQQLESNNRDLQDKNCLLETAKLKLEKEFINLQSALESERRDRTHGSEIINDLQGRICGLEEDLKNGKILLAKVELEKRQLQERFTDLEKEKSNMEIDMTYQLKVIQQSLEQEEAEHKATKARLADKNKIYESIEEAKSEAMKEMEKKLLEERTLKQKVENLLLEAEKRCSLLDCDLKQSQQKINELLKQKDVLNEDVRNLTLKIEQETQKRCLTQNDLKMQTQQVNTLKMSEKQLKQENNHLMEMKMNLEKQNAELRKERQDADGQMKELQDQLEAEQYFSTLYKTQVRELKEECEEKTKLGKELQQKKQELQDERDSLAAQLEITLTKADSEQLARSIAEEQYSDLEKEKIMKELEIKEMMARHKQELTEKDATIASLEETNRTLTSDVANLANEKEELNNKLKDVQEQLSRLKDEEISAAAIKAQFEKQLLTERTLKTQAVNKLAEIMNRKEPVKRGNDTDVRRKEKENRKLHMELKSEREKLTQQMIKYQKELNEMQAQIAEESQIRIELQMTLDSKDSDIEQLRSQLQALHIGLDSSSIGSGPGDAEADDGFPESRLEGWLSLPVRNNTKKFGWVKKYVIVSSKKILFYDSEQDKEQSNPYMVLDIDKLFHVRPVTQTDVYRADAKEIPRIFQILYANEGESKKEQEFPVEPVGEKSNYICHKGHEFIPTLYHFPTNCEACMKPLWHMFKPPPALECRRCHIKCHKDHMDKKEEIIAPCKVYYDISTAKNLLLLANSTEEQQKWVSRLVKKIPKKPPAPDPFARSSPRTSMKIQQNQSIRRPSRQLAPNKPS
ROCK1, sequence (Q13464 whole entry): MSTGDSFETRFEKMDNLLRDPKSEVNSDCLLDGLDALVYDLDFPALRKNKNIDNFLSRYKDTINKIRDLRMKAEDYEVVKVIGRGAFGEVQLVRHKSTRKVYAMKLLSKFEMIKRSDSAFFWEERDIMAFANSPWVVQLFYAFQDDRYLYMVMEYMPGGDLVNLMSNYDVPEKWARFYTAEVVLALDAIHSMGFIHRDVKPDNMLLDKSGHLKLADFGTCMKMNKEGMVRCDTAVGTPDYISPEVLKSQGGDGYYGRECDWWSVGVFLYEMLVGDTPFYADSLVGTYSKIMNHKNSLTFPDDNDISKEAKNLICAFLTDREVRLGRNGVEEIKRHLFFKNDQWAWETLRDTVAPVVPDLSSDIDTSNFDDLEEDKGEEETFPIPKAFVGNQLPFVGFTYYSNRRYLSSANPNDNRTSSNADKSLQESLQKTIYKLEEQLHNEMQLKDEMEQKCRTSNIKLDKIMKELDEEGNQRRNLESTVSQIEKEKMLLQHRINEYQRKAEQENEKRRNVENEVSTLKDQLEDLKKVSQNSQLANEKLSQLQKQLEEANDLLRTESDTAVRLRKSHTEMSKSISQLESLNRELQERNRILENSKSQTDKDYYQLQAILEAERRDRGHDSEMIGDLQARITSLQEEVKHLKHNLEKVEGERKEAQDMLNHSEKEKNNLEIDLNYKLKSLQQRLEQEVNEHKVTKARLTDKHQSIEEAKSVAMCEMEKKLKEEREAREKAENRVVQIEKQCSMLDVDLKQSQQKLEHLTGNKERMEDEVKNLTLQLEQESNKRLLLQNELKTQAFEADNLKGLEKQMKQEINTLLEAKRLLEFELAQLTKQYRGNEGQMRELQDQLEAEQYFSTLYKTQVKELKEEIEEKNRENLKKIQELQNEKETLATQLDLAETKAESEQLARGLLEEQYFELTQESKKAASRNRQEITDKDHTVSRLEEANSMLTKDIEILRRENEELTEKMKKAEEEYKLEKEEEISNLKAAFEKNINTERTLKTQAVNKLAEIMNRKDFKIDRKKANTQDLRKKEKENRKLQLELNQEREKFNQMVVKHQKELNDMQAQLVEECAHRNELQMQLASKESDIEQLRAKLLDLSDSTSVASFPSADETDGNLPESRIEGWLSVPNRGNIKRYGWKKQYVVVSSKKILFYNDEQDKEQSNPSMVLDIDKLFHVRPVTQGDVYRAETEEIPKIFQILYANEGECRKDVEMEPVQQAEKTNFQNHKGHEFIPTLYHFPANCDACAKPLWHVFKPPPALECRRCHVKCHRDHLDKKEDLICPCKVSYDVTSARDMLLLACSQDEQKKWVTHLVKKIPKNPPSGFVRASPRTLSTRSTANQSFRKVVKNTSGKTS

For `CC(C)(C)N1CC(CNC(=O)c2cccc(CNc3ncc(-c4ccnc(N)n4)c4c3CCO4)c2)CC1=O` (single isomer, unassigned) [Example 32, 3-(((7-(2-Aminopyrimidin-4-yl)-2,3-dihydrofuro[3,2-c]pyridin-4-yl)amino)methyl)-N-((1-(tert-butyl)-5-oxopyrrolidin-3-yl)methyl)benzamide], the Ki at ROCK1 and on ROCK2 was at most 3 nM each time. Besides, on PKA, the “Ratio (PKA/ROCK2)” value was “*** (ratio≥10)”.

Regarding `CC(C)(C)N1CC(CNC(=O)c2cccc(CNc3ncc(-c4ccnc(N)n4)c4c3CCO4)c2)CC1=O` (single isomer, unassigned) [Example 33, 3-(((7-(2-Aminopyrimidin-4-yl)-2,3-dihydrofuro[3,2-c]pyridin-4-yl)amino)methyl)-N-((1-(tert-butyl)-5-oxopyrrolidin-3-yl)methyl)benzamide], the Ki at ROCK1 and at ROCK2 was at most 3 nM in each case. The “Ratio (PKA/ROCK2)” value on PKA is “*** (ratio≥10)”.

`CN1CCOC(CNC(=O)c2cccc(CNc3ncc(-c4ccnc(N)n4)c4c3CCO4)c2)C1` (single isomer, unassigned) [Example 34, 3-(((7-(2-Aminopyrimidin-4-yl)-2,3-dihydrofuro[3,2-c]pyridin-4-yl)amino)methyl)-N-((4-methylmorpholin-2-yl)methyl)benzamide]: the Ki on ROCK1 and on ROCK2 was at most 3 nM throughout. In addition, the “Ratio (PKA/ROCK2)” value on PKA was “*** (ratio≥10)”.

On to `CN1CCOC(CNC(=O)c2cccc(CNc3ncc(-c4ccnc(N)n4)c4c3CCO4)c2)C1` (single isomer, unassigned) [Example 35, 3-(((7-(2-Aminopyrimidin-4-yl)-2,3-dihydrofuro[3,2-c]pyridin-4-yl)amino)methyl)-N-((4-methylmorpholin-2-yl)methyl)benzamide], for which the Ki on ROCK1 and at ROCK2 was at most 3 nM throughout. On PKA, the “Ratio (PKA/ROCK2)” value is “*** (ratio≥10)”.

As for `Nc1nccc(-c2cnc(NCc3cccc(C(=O)NC4CC4F)c3)c3c2OCC3)n1` (single isomer, unassigned) [Example 45, Trans 3-(((7-(2-Aminopyrimidin-4-yl)-2,3-dihydrofuro[3,2-c]pyridin-4-yl)amino)methyl)-N-(2-fluorocyclopropyl)benzamide], the Ki on ROCK1 and at ROCK2 was at most 3 nM each time. The “Ratio (PKA/ROCK2)” value at PKA was “*** (ratio≥10)”.

`Nc1nccc(-c2cnc(NCc3cccc(C(=O)NC4CC4F)c3)c3c2OCC3)n1` (single isomer, unassigned) [Example 46, Trans 3-(((7-(2-Aminopyrimidin-4-yl)-2,3-dihydrofuro[3,2-c]pyridin-4-yl)amino)methyl)-N-(2-fluorocyclopropyl)benzamide]: the Ki at ROCK1 and on ROCK2 was at most 3 nM each time. On PKA, the “Ratio (PKA/ROCK2)” value is reported as “*** (ratio≥10)”.

For the compound `Nc1nccc(-c2cnc(NCc3cccc(C(=O)NC4CCC4)c3)c3c2OCC3)n1` [Example 1, 3-(((7-(2-Aminopyrimidin-4-yl)-2,3-dihydrofuro[3,2-c]pyridin-4-yl)amino)methyl)-N-cyclobutylbenzamide], the Ki on ROCK1 and on ROCK2 was at most 3 nM throughout. On PKA, the “Ratio (PKA/ROCK2)” value is given as “** (5≤ratio<10)”.

For `Nc1nccc(-c2cnc(NCc3cccc(C(=O)NCC4CCOCC4)c3)c3c2OCC3)n1` [Example 2, 3-(((7-(2-Aminopyrimidin-4-yl)-2,3-dihydrofuro[3,2-c]pyridin-4-yl)amino)methyl)-N-((tetrahydro-2H-pyran-4-yl)methyl)benzamide], the Ki on ROCK1 and at ROCK2 was at most 3 nM in each case. Moreover, the “Ratio (PKA/ROCK2)” value on PKA was “*** (ratio≥10)”.

`CC1(C)CC(NC(=O)c2cccc(CNc3ncc(-c4ccnc(N)n4)c4c3CCO4)c2)CO1` (stereo not drawn) [Example 3, 3-(((7-(2-Aminopyrimidin-4-yl)-2,3-dihydrofuro[3,2-c]pyridin-4-yl)amino)methyl)-N-(5,5-dimethyltetrahydrofuran-3-yl)benzamide]: the Ki on ROCK1 and on ROCK2 was at most 3 nM throughout. Further, at PKA, the “Ratio (PKA/ROCK2)” value is “*** (ratio≥10)”.

As for `Nc1nccc(-c2cnc(NCc3cccc(C(=O)NC4CC4)c3)c3c2OCC3)n1` [Example 4, 3-(((7-(2-Aminopyrimidin-4-yl)-2,3-dihydrofuro[3,2-c]pyridin-4-yl)amino)methyl)-N-cyclopropylbenzamide], the Ki on ROCK1 and at ROCK2 was at most 3 nM in each case. Besides, on PKA, the “Ratio (PKA/ROCK2)” value was “*** (ratio≥10)”.

Consider `Nc1nccc(-c2cnc(NCc3cccc(C(=O)NCCN4CCCCC4)c3)c3c2OCC3)n1` [Example 5, 3-(((7-(2-Aminopyrimidin-4-yl)-2,3-dihydrofuro[3,2-c]pyridin-4-yl)amino)methyl)-N-(2-(piperidin-1-yl)ethyl)benzamide], for which the Ki on ROCK1 and on ROCK2 was at most 3 nM in each case. The “Ratio (PKA/ROCK2)” value on PKA is “*** (ratio≥10)”.

As for `[2H]C([2H])([2H])OCCCNC(=O)c1cccc(CNc2ncc(-c3ccnc(N)n3)c3c2CCO3)c1` [Example 6, 3-(((7-(2-aminopyrimidin-4-yl)-2,3-dihydrofuro[3,2-c]pyridin-4-yl)amino)methyl)-N-(3-(methoxy-d3)propyl)benzamide], the Ki at ROCK1 and at ROCK2 was at most 3 nM each time. Besides, the “Ratio (PKA/ROCK2)” value at PKA was “*** (ratio≥10)”.

As to `Nc1nccc(-c2cnc(NCc3cccc(C(=O)NC4CCOCC4)c3)c3c2OCC3)n1` [Example 7, 3-(((7-(2-Aminopyrimidin-4-yl)-2,3-dihydrofuro[3,2-c]pyridin-4-yl)amino)methyl)-N-(tetrahydro-2H-pyran-4-yl)benzamide], the Ki at ROCK1 and at ROCK2 was at most 3 nM in each case. The “Ratio (PKA/ROCK2)” value on PKA is listed as “*** (ratio≥10)”.

On to `COCCCNC(=O)c1cccc(CNc2ncc(-c3ccnc(N)n3)c3c2CCO3)c1` [Example 8, 3-(((7-(2-Aminopyrimidin-4-yl)-2,3-dihydrofuro[3,2-c]pyridin-4-yl)amino)methyl)-N-(3-methoxypropyl)benzamide], for which the Ki on ROCK1 and on ROCK2 was at most 3 nM in each case. In addition, on PKA, the “Ratio (PKA/ROCK2)” value is reported as “*** (ratio≥10)”.

Consider `COCCNC(=O)c1cccc(CNc2ncc(-c3ccnc(N)n3)c3c2CCO3)c1` [Example 9, 3-(((7-(2-Aminopyrimidin-4-yl)-2,3-dihydrofuro[3,2-c]pyridin-4-yl)amino)methyl)-N-(2-methoxyethyl)benzamide], for which the Ki at ROCK1 and at ROCK2 was at most 3 nM in each case. Besides, the “Ratio (PKA/ROCK2)” value on PKA is “*** (ratio≥10)”.

For `Nc1nccc(-c2cnc(NCc3cccc(C(=O)NC4CC(F)(F)C4)c3)c3c2OCC3)n1` [Example 10, 3-(((7-(2-Aminopyrimidin-4-yl)-2,3-dihydrofuro[3,2-c]pyridin-4-yl)amino)methyl)-N-(3,3-difluorocyclobutyl)benzamide], the inhibition constant Ki on ROCK1 and at ROCK2 was at most 3 nM each time. Further, the “Ratio (PKA/ROCK2)” value at PKA was “** (5≤ratio<10)”.

`CC(C)NC(=O)c1cccc(CNc2ncc(-c3ccnc(N)n3)c3c2CCO3)c1` [Example 11, 3-(((7-(2-Aminopyrimidin-4-yl)-2,3-dihydrofuro[3,2-c]pyridin-4-yl)amino)methyl)-N-isopropylbenzamide]: the Ki on ROCK1 and on ROCK2 was 3 to 30 nM in each case. For the same compound, on PKA, the “Ratio (PKA/ROCK2)” value is on record as “*** (ratio≥10)”.

Turning to `Nc1nccc(-c2cnc(NCc3cccc(C(=O)NCC(F)(F)F)c3)c3c2OCC3)n1` [Example 12, 3-(((7-(2-Aminopyrimidin-4-yl)-2,3-dihydrofuro[3,2-c]pyridin-4-yl)amino)methyl)-N-(2,2,2-trifluoroethyl)benzamide], the Ki at ROCK1 is 3 to 30 nM; at ROCK2, at most 3 nM. In addition, the “Ratio (PKA/ROCK2)” value at PKA is listed as “*** (ratio≥10)”.
